Measured values taken from patent US6441162B2, “Crystalline substance of cefditoren pivoxyl and the production of the same” (Meiji Seika Kaisha, Ltd., priority 1996, dated 2002).

Assay: Thermal stability on storage in sealed dry containers, residual Cefditoren pivoxyl by liquid chromatography
Assay type: physicochemical
Conditions: sealed dry container; for Residual quantity (%) of Cefditoren pivoxyl upon storage at 60° C., Initial content (at 0 day): initial content assumed to be 100%
Excerpt: In order to test the thermal stability on storage of the new crystalline substance of Cefditoren pivoxyl according to this invention, in comparison with the known, amorphous form of Cefditoren pivoxyl, there were employed a sample of the crystalline Cefditoren pivoxyl which was produced in Example 1 given hereinafter, as well as a sample of the amorphous Cefditoren pivoxyl which was produced by admixing a solution of amorphous Cefditoren pivoxyl in methanol with an aqueous iso-propanol to precipitate an amorphous powder of this compound and separating and drying this powder under a reduced pressure. These samples were separately placed in sealed dry containers and were stored for 1 month, for 2 months and for 4 months at 60° C. and at 40° C., respectively. After these storages, the samples were analysed by a liquid chromatographic method and percentages of the residual quantity of Cefditoren pivoxyl remaining in the stored samples were evaluated from the area under the absorption peak which was shown in the chromatogramms obtained. It is assumed that the initial content of Cefditoren pivoxyl in the test samples was 100% at the starting of the storages.

| Residual quantity (%) of Cefditoren pivoxyl upon storage at 60° C., After 1 month [%] | Residual quantity (%) of Cefditoren pivoxyl upon storage at 60° C., After 2 months [%] | Residual quantity (%) of Cefditoren pivoxyl upon storage at 60° C., Initial content (at 0 day) [%] | Residual quantity of Cefditoren pivoxyl after the 4-month storage at 40° C. (40° C., 4 months) [%] | Residual quantity (%) of Cefditoren pivoxyl upon storage at 60° C., After 2 months (listed as crystalline substance of Cefditoren pivoxyl) [%] | Structure (SMILES) |
| --- | --- | --- | --- | --- | --- |
| 93 | 88 | 100 |  |  | CO/N=C(\C(=O)NC1C(=O)N2C(C(=O)OCOC(=O)C(C)(C)C)=C(/C=C\c3scnc3C)CS[C@H]12)c1csc(N)n1 (some centres unmarked) [Amorphous substance, 7-[(Z)-2-(2-aminothiazol-4-yl)-2-methoxyiminoacetamido]-3-[(Z)-2-(4-methylthiazol-5-yl)ethenyl]-3-cephem-4-carboxylic acid pivaloyloxymethyl ester, reference compound] |
| 99 | 99 | 100 | 99 | 99 | CO/N=C(\C(=O)NC1C(=O)N2C(C(=O)OCOC(=O)C(C)(C)C)=C(/C=C\c3scnc3C)CS[C@H]12)c1csc(N)n1 (some centres unmarked) [Crystalline substance, 7-[(Z)-2-(2-aminothiazol-4-yl)-2-methoxyiminoacetamido]-3-[(Z)-2-(4-methylthiazol-5-yl)ethenyl]-3-cephem-4-carboxylic acid pivaloyloxymethyl ester] |
